In the METLIN SMRT retention time set (Domingo-Almenara et al. 2019) one finds RP-LC retention time data, which are given here for 81 molecules.

SMILES strings stand for the structures.

This data set is described as follows: gradient 5% acetonitrile 3 min, to 50% in 2 min, to 85% in 15 min, held 3 min, 100 µL/min. Particulars: column: Zorbax Extend-C18 2.1 x 50 mm; eluents: water / acetonitrile, 0.1% formic acid. An outline of the steps:
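Each retention time is based on an adduct peak selected computationally and verified by manual inspection. Measurements used HPLC–quadrupole time-of-flight mass spectrometry in positive and negative ionization mode on mixtures of ~100 pure standards. Chromatography ran on a Zorbax Extend-C18 column (2.1 × 50 mm, 1.8 μm) at 100 μL/min with water and acetonitrile, each containing 0.1% formic acid, and dead and dwell volumes of 40 μL and 900 μL.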
For the molecule `CCCN1CCN(C(=O)C(C)C2CCN(S(=O)(=O)c3ccc(Cl)s3)CC2)CC1` (stereo unspecified), the RP-LC retention time was determined as 674 s. Under `CCN(Cc1ccccc1)Cc1cc(=O)n2cc(Cl)ccc2n1` stands 616 s; under `CC1CCN(C(=O)Cc2nnc(-c3ccccc3)o2)CC1`, 770 s; under `CC(NC(=O)C1CCN(c2cncnc2N2CCOCC2)CC1)c1ccc(F)cc1` (stereo unspecified), 628 s. Under `COCCNC(=O)Nc1nc(CSCc2cc(OC)cc(OC)c2)cs1` stands 734 s; under `Cc1ccc(CC(=O)NC(CC(C)C)C(=O)Nc2nc3ccccc3[nH]2)cc1` (stereo unspecified), 786 s. Under `CCn1cc(C(=O)Nc2cccc(Cl)c2)c(S(=O)(=O)N2CCSCC2)n1` stands 890 s; under `Cc1cccc(Sc2nccnc2N2CCC(C(=O)NCC3CCCO3)CC2)c1` (stereo unspecified), 888 s.

In the case of `CN(C)c1ccc(-c2nc3cnccn3c2Nc2ccc(C(=O)O)cc2)cc1`, the RP-LC retention time came out at 616 s. Then `O=C(NCCCN1CCCC1=O)C1CCN(c2cncnc2N2CCCCC2)CC1`, with 582 s; and `CCn1c(C(=O)N2CCOCC2)cc2c(=O)oc3ccccc3c21`, with 713 s. Turning to `CCCCOc1ccc(-c2cc3c(N4CCN(CC)CC4)nccn3n2)cc1`, the RP-LC retention time was determined as 775 s. Under `CCS(=O)(=O)N1CCCc2cc(C(=O)NC3CCCCCC3)ccc21` stands 956 s. `CCOc1cc(S(=O)(=O)Nc2cccc3cn[nH]c23)ccc1Br` registered an RP-LC retention time of 804 s. Under `CCCN(Cc1ccc(OCC)cc1)Cc1cc(=O)n2cc(Cl)ccc2n1` stands 686 s; under `CC(=O)N1CCc2sc(S(=O)(=O)N3CCN(c4cccc(C)c4C)CC3)cc2C1`, 1030 s.

As for `O=C(O)c1ccccc1-n1c2ccccc2c2ccccc21`, the RP-LC retention time stood at 1050 s. In turn, `CN1C(=O)c2cccnc2Sc2cc(NC(=O)c3ccc(OC(F)(F)F)cc3)ccc21` registered an RP-LC retention time of 936 s.

Molecule `CCOc1ccc(NC(=O)c2cc3sc(Cl)cc3n2CC)cc1` displayed an RP-LC retention time of 1240 s.

Molecule `O=C(c1ccc(-n2cccn2)nc1)N1CCSCC1` returned an RP-LC retention time of 714 s.

`O=C(CN1C(=O)COc2ccc(C(=O)N3CCc4ccccc4C3)cc21)N1CCCC1` yielded an RP-LC retention time of 763 s. Under `CN(C)C(CNS(=O)(=O)c1ccc(Br)s1)c1cn(C)c2ccccc12` (stereo unspecified) stands 595 s; under `CC(=O)Nc1ccc2cc3ccc(NC(C)=O)cc3nc2c1`, 632 s; under `Cc1cc(Cl)ccc1N1C(=O)CN(S(C)(=O)=O)CC1(C)C(=O)NC1CCCCC1` (stereo unspecified), 900 s. Then `Cc1ccc(F)cc1NC(=O)Cn1cnc(C)c(C)c1=O`, with 660 s. Then `Cc1cc2nc(CN3CCN(Cc4ccccc4)CC3)c(=O)[nH]c2cc1C`, with 620 s. For the molecule `Cc1oc(C2CCN(C(=O)Nc3cccc(Cl)c3C)CC2)nc1C(=O)N(C)C`, the RP-LC retention time turned out to be 728 s. `Cc1cnc(C(=O)N2CC(n3cc(COc4ccncc4)nn3)C2)cn1` yielded an RP-LC retention time of 553 s. Under `CC(=O)N1CCc2cc(C)c(S(=O)(=O)N3CCOCC3)cc21` stands 708 s; under `O=C(C1CCN(c2cc(N3CCOCC3)ncn2)CC1)N1CCN(c2ccccc2)CC1`, 640 s.

`O=C(Cn1nc(Cc2ccncc2)c2ccccc2c1=O)N1CC=C(c2ccccc2)CC1` came in with an RP-LC retention time of 685 s. With `O=C(NC1CCCCC1)C1CCc2nc(N3CCCCC3)ncc2C1` (stereo unspecified), the RP-LC retention time is 723 s. Under `CCn1c(=O)c2ccccc2n(Cc2nc(-c3ccc(C)c(C)c3)no2)c1=O` stands 1100 s. Under `Cc1cc(=O)n(CC(=O)Nc2ccc3c(c2)OCO3)c(-c2ccc(F)cc2)n1` stands 974 s; under `C[C@@]12N[C@@H](Cc3ccccc31)c1ccccc12`, 655 s; under `Cc1oc(-c2ccc(NC(=O)C3CCCO3)cc2)nc1Cn1cccn1` (stereo unspecified), 774 s. Then `COc1cccc(-n2c(=O)c(C(=O)NC3CCCC3)c(O)c3cccnc32)c1`, with 1210 s. In turn, `Cc1ccc(NC(=O)C2CCN(S(=O)(=O)c3ccc4c(c3)sc(=O)n4C(C)C)CC2)nc1` yielded an RP-LC retention time of 794 s. Take `Cc1cc2nn(CC(=O)Nc3ccccc3)c(=O)n2c(-c2ccc(F)cc2)n1`: the RP-LC retention time was 800 s. Take `COc1ccc(OC)c(S(=O)(=O)NCCN2CCN(c3ccccc3F)CC2)c1`: the RP-LC retention time came out at 588 s. Under `Cc1nc(-c2ccc(N3CCN(C(=O)c4cccc(F)c4)CC3)nc2)sc1C` stands 921 s; under `CCCn1cnc2ccc(-c3noc(CNC(=O)c4ccccc4)n3)cc21`, 655 s. In turn, `Nc1c(CC(=O)O)cccc1C(=O)c1ccc(Br)cc1` had an RP-LC retention time of 909 s.

`CCOc1ccc(NC(=O)Cn2cnc3nc(N4CCCC(C(=O)NC)C4)sc3c2=O)cc1` (stereo unspecified) registered an RP-LC retention time of 666 s.

`COc1ccc(-c2nc(NCCCN3CCC(N4CCCCC4)CC3)c3ccccc3n2)cc1` had an RP-LC retention time of 1210 s. In the case of `COc1ccc(NC(=O)C2CCCN(c3cnc4nc(C)c(C)nc4c3)C2)c(C)c1` (stereo unspecified), the RP-LC retention time stood at 712 s. Under `CCc1cccc(C)c1Nc1c(-c2ccc(C)cc2)nc2ncccn12` stands 878 s. Then `COc1cc(NC(=O)Cn2nc([N+](=O)[O-])cc2C)c(OC)cc1Cl`, with 829 s; and `Cc1nc(-c2ccc(OC3CCN(C(=O)NC4CCCC4)C3)cc2)no1` (stereo unspecified), with 820 s. Then `CC(=O)c1sc(NC(=O)C2COc3ccccc3O2)nc1C` (stereo unspecified), with 763 s; and `O=C(Nc1ccc2nc3n(c(=O)c2c1)CCC3)Nc1ccccc1Br`, with 726 s. Take `CCOC(=O)C1CCN(C(=O)CCCn2c(=O)c3cccn3c3ccc(Br)cc32)CC1`: the RP-LC retention time is 974 s. For the molecule `COc1ccc(NC(=O)c2cnc3c(c2)c(=O)n(C)c(=O)n3-c2ccc(C)cc2)cc1OC`, the RP-LC retention time amounted to 836 s. `Cc1ccc(NC(=O)N2CCCC2c2nncn2-c2ccccc2)cc1C` (stereo unspecified) registered an RP-LC retention time of 767 s. As to `CCOc1ccccc1NC(=O)Cn1nc2c3sc(N(C)C)nc3ncn2c1=O`, the RP-LC retention time turned out to be 724 s. The molecule `O=C(Cc1csc2nc(-c3ccccc3)cn12)N1CCCc2ccccc21` showed an RP-LC retention time of 873 s. `COCc1nc(NCc2ccc3c(c2)OCO3)ncc1C(=O)O` registered an RP-LC retention time of 673 s. Then `CCc1cc(=O)n(CC(=O)NC2CCCC2)c(N)n1`, with 574 s; and `CCOc1ccc(S(=O)(=O)N2CCC(C(=O)NCc3csc(-c4ccccc4)n3)CC2)cc1`, with 978 s. Consider `CC(C)C(=O)Nc1ccc(-c2nc(-c3ccc(Cl)cc3)no2)cc1`, for which the RP-LC retention time was determined as 1200 s. Then `COCC(=O)NC1CCN(c2ccccc2)C1=O` (stereo unspecified), with 617 s; and `O=C(Cn1nc(-c2ccccc2)c2cc(Cl)ccc21)NCc1cccnc1`, with 712 s; and `O=C(NC1CCN(c2cc(-c3ccc(Cl)cc3)[nH]n2)C1)c1ccc2c(c1)OCO2` (stereo unspecified), with 715 s.

Molecule `Cc1ccc(C)c(C(=O)CCC(=O)O)c1` had an RP-LC retention time of 818 s. Under `Cc1ccc(S(=O)(=O)NC(c2nc(-c3ccc(-c4csc(C)n4)cc3)no2)C(C)C)cc1` (stereo unspecified) stands 1160 s. Then `Cc1nc(C2CCOCC2)n(C2CCN(S(=O)(=O)c3ccccc3Cl)C2)n1` (stereo unspecified), with 740 s.

For `CCOC(=O)c1noc2nc(C)nc(NCC3CCN(Cc4ccccc4F)CC3)c12`, the RP-LC retention time was 595 s. Then `Cc1cccc(NC(=O)N2CCCC2c2nc(-c3ccccc3)no2)c1` (stereo unspecified), with 984 s; and `Cc1cc(C)n(-c2ccnc(NCCC3=CCCCC3)n2)n1`, with 975 s. `CN1CCCN(C(=O)Nc2ccc3c(c2)OCCO3)c2ccccc21` displayed an RP-LC retention time of 649 s.

`Cc1cccc(-c2nc3ccccn3c2NC(=O)NCc2cccc(F)c2)c1`: the RP-LC retention time is 669 s. Under `Cc1cc(S(=O)(=O)Nc2cccn3c(C4CCC4)nnc23)ccc1F` stands 822 s; under `CCOC(=O)c1c(S(=O)(=O)N2CC=C(c3ccccc3)CC2)n[nH]c1CC`, 927 s. Under `Cc1cnn(CC(=O)N2CCc3nn(C)c(=O)n3CC2)c1` stands 577 s; under `CSc1cccc(NC(=O)c2c[nH]c3ncccc23)c1`, 752 s. In turn, `O=C(Nc1ccc2c(c1)OCCO2)N1CCN(c2nc3cccnc3n(Cc3ccccc3)c2=O)CC1` gave an RP-LC retention time of 1000 s. Then `CCC1CN2C=NC(N3CCN(C(=O)c4ccccc4)CC3)=CC2=N1` (stereo unspecified), with 611 s; and `CSc1nc(N2CCCC2)c2cnn(CCNC(=O)c3ccc(=O)[nH]c3)c2n1`, with 593 s.

In turn, `Cc1sc(C)c(S(=O)(=O)NCc2ccc(F)cc2)c1-c1cc(C(F)(F)F)on1` returned an RP-LC retention time of 1160 s. Then `CCn1c(CN(C)C(=O)Nc2ccc3c(c2)OCCO3)nc2cc(C(=O)N(C)C)ccc21`, with 611 s. Under `Cc1cccc(NC(=O)N2CCc3c(c(-c4nc(C5CC5)no4)nn3C)C2)c1` stands 854 s.
